# Marks after values point to notes of the source that are not given here. No end group written: not given here.
# What was measured:
# [1] = test system: cecal microbiota; test: Cecal microbiome analysis (peptides, APEC infected); assay type: in vivo, chickens
# Procedure: Cecal microbiome analysis: To investigate the impact of peptides (P1, P2, and P3) treatment (50 mg/kg and 100 mg/kg) on cecal microbiome of chickens, 16S rRNA based metagenomic study was conducted as previously described. DNA was extracted from 0.2 g of cecal contents using PureLink™ Microbiome DNA Purification Kit (Thermofisher Scientific) and treated with RNase A (2 μL of 100 mg/mL solution per sample; Qiagen) to remove the RNA. DNA quantity and quality were measured using NanoDrop 2000c Spectrophotometer (Thermo Fisher Scientific). The extracted DNA samples were subjected to 16S rRNA V4-V5 sequencing at molecular and cellular imaging center (MCIC), Ohio Agricultural Research and Development Center (OARDC) (mcic.osu.edu/genomics/illumina-sequencing). Amplicon libraries were prepared using IFU KAPA HiFi HotStart ReadyMixPCR Kit (Roche) and PCR clean-up was performed using Agencourt AMPure XP beads (BECKMAN COULTER Life Sciences). Nextera XT DNA Library Preparation Kit (Illumina) was used to generate Illumina library and sequencing was performed using Illumina MiSeq platform generating paired end 300-bp reads.
# For the metagenomic analysis, QIIME (Quantitative Insights into Microbial Ecology) 2 bioinformatics platform (qiime2.org/) was used. Quality control of the raw reads was performed using FastQC 0.11.8 (Babraham Bioinformatics). Trimmomatic-0.33 was used to trim the adaptor and other illumina-specific sequences (www.usadellab.org/cms/?page=trimmomatic). The trimmed sequences (fastq.gz) were then imported into the QIIME 2 as a manifest file format (PairedEndManifestPhred33V2). The feature table construction and additional filtering of the sequences was performed using DADA2. The taxonomic analysis was performed using Naive Bayes classifiers trained on the Silva 132 99% OTUs (silva-132-99-nb-classifier.qza) database. The phylogenetic diversity was analyzed using align-to-tree-mafft-fasttree pipeline and alpha ([…]) were analyzed using core-metrics-phylogenetic pipeline (docs.qiime2.org/2019.7/tutorials/moving-pictures/). The statistical difference (P<0.05) in the taxonomic composition between the peptides treated, PC, and NC groups was determined using Mann-Whitney U test. The alpha and beta diversity were analyzed using Kruskal-Wallis and PERMANOVA tests (P<0.05), respectively.
# [2] = test system: intracellular APEC O78 in HD11 cells; test: Intracellular survival of APEC in HD11 cells (gentamicin protection assay); assay type: cell-based, chicken
# Procedure: Effect of peptides on intracellular survival of APEC in HD11 cells: To determine the efficacy of peptides (P1, P2, and P3) against intracellular APEC, gentamicin protection assay was conducted in HD 11 (chicken macrophage) cells as described previously. The cells were cultured in Iscove's Modified Dulbecco's Media (IMDM) supplemented with 10% fetal bovine serum (FBS), 2 mM L-glutamine and 2% penicillin-streptomycin (P/S) solution and maintained at 37° C. incubator with 5% C02. Cells (approximately 10^4 cells/well) were seeded in a 96-well cell culture plate in 100 μL culture media and incubated for 36 h prior to using for the assay. Following incubation, the cells were replenished with 100 μL of fresh cell culture media with no FBS and antibiotic and incubated until infection (2 h). For the infection, the overnight grown APEC O78 was subcultured to mid-logarithmic phase, centrifuged, washed twice with PBS, adjusted to 1×10^7 CFU/mL. One-hundred microliters of the APEC suspension (MOI: 100) was added to each well of the 96-well plate and incubated for 1 h to allow the invasion. The cells were washed twice and treated with gentamicin (150 μg/mL) to kill the extracellular APEC. The cells were treated with peptides at 12 mM, 15 mM, and 18 mM concentrations. Infected but not treated, infected and DMSO-treated, and non-infected and not treated cells were used as controls. Three independent experiments were conducted.
# [3] = test system: biofilm protected APEC; test: MBEC-HTP assay; assay type: cell-based, E. coli; conditions: at MICs, 18 h; untreated 7.54 ± 0.07
# Procedure: MBEC™-HTP assay: To test the efficacy of the peptides (P1, P2, and P3) against biofilm protected APEC, Innovotech's MBEC Assay® was conducted as described previously(27). Briefly, 150 μL of 0.05 OD600 (5×10^7 CFU/mL) adjusted APEC suspension in LB media was aliquoted into the wells of MBEC™ device containing polystyrene pegs and incubated for 36 h on a rocker platform at 37° C. to allow the biofilm formation. After biofilm formation, the pegs were washed to remove loosely adherent planktonic bacteria and transferred to a new 96-well plate (challenge plate) containing peptides at MICs in 200 μL diluted (25%) LB media. The diluted LB media mimics the minimal media which stimulates biofilm formation and maintenance. The plate was incubated for 18 h at 37° C. with rotation at 150 rpm. Sterile media and DMSO (solvent) were used as controls. Following incubation, the MICs of peptides in challenge plate were recorded. The peptides exposed pegs were transferred to new 96-well plate containing PBS and sonicated for 30 mins to disrupt the biofilm. The sonicated suspensions were then ten-fold serially diluted and plated on LB agar plates to enumerate the biofilm protected bacteria and the minimum biofilm eradication concentration (MBEC) of peptides were determined. Three independent experiments were conducted.
substance,measurement,setting,value
"PDENK [Peptide P2, PDENK]",Beta-diversity (weighted unifrac) vs NC chickens,[1]; 50 mg/kg,similar
same,Beta-diversity (weighted unifrac) vs NC chickens,[1]; 100 mg/kg,significantly (P<0.01) different
same,Relative abundance Clostridia,"[1]; class, 100 mg/kg",64.92%
same,Relative abundance Lachnospiraceae,"[1]; family, 100 mg/kg",56.10%
same,Relative abundance Lactobacillaceae,"[1]; family, 100 mg/kg",1.38%
same,Relative abundance Leuconostocaceae,"[1]; family, 100 mg/kg, from 0.31%",0%
same,Relative abundance Clostridiaceae 1,"[1]; family, 100 mg/kg, from 0.53%",0%
same,Relative abundance (%) Anaerotruncus,"[1]; genus, 50-mg/kg dose",0.00%
same,Relative abundance (%) Bacteroides,"[1]; genus, 50-mg/kg dose",55.87%
same,Relative abundance (%) Clostridioides,"[1]; genus, 50-mg/kg dose",0.00%
same,Relative abundance (%) Clostridium sensu stricto 1,"[1]; genus, 50-mg/kg dose",0.00%
same,Relative abundance (%) Enterococcus,"[1]; genus, 50-mg/kg dose",1.24%
same,Relative abundance (%) Erysipelatoclostridium,"[1]; genus, 50-mg/kg dose",3.84^a %
same,Relative abundance (%) Escherichia-Shigella,"[1]; genus, 50-mg/kg dose",4.95%
same,Relative abundance (%) Flavonifractor,"[1]; genus, 50-mg/kg dose",0.68%
same,Relative abundance (%) Lachnospiraceae (uncultured),"[1]; genus, 50-mg/kg dose",2.30%
same,Relative abundance (%) Oscillibacter,"[1]; genus, 50-mg/kg dose",0.00%
same,Relative abundance (%) Pediococcus,"[1]; genus, 50-mg/kg dose",0.74%
same,Relative abundance (%) Ruminiclostridium 5,"[1]; genus, 50-mg/kg dose",0.23%
same,Relative abundance (%) Ruminiclostridium 9,"[1]; genus, 50-mg/kg dose",1.25%
same,Relative abundance (%) Ruminococcus gnavus group,"[1]; genus, 50-mg/kg dose",0.00%
same,Relative abundance (%) Ruminococcus torques group,"[1]; genus, 50-mg/kg dose",9.83%
same,Relative Abundance (%) Blautia,"[1]; genus, 100-mg/kg dose",0.00%
same,Relative Abundance (%) Caproiciproducens,"[1]; genus, 100-mg/kg dose",0.00%
same,Relative Abundance (%) Lactobacillus,"[1]; genus, 100-mg/kg dose",0.00%
same,Relative Abundance (%) Sellimonas,"[1]; genus, 100-mg/kg dose",0.00^b %
same,Relative Abundance (%) [Clostridium] innocuum group,"[1]; genus, 100-mg/kg dose",0.00^b %
same,Relative Abundance (%) [Eubacterium] coprostanoligenes group,"[1]; genus, 100-mg/kg dose",0.00%
same,Relative abundance (%) Anaerotruncus,"[1]; genus, 100-mg/kg dose",0.00%
same,Relative abundance (%) Bacillus,"[1]; genus, 100-mg/kg dose",0.37%
same,Relative abundance (%) Butyricicoccus,"[1]; genus, 100-mg/kg dose",1.53%
same,Relative abundance (%) Clostridiales vadin BB60 group,"[1]; genus, 100-mg/kg dose",0.00%
same,Relative abundance (%) Clostridioides,"[1]; genus, 100-mg/kg dose",0.00%
same,Relative abundance (%) Clostridium sensu stricto 1,"[1]; genus, 100-mg/kg dose",0.00%
same,Relative abundance (%) Enterococcus,"[1]; genus, 100-mg/kg dose",2.01%
same,Relative abundance (%) Erysipelatoclostridium,"[1]; genus, 100-mg/kg dose",14.71^b %
same,Relative abundance (%) Escherichia-Shigella,"[1]; genus, 100-mg/kg dose",13.77%
same,Relative abundance (%) Flavonifractor,"[1]; genus, 100-mg/kg dose",0.68^b %
same,Relative abundance (%) Lachnospiraceae (uncultured),"[1]; genus, 100-mg/kg dose",0.73%
same,Relative abundance (%) Lactococcus,"[1]; genus, 100-mg/kg dose",0.40%
same,Relative abundance (%) Oscillibacter,"[1]; genus, 100-mg/kg dose",0.13%
same,Relative abundance (%) Paenibacillus,"[1]; genus, 100-mg/kg dose",0.00%
same,Relative abundance (%) Pediococcus,"[1]; genus, 100-mg/kg dose",1.38^b %
same,Relative abundance (%) Ruminiclostridium 5,"[1]; genus, 100-mg/kg dose",0.28%
same,Relative abundance (%) Ruminiclostridium 9,"[1]; genus, 100-mg/kg dose",0.78%
same,Relative abundance (%) Ruminococcacede UCG-005,"[1]; genus, 100-mg/kg dose",2.19%
same,Relative abundance (%) Ruminococcus torques group,"[1]; genus, 100-mg/kg dose",10.37%
same,Relative abundance (%) UBA1819,"[1]; genus, 100-mg/kg dose",0.68%
same,Relative abundance (%) Weissella,"[1]; genus, 100-mg/kg dose",2.43^a %
same,Intracellular APEC (log CFU/mL),"[2]; 12 mM, untreated 3.75 ± 0.10",3.33 ± 0.03 log CFU/mL
same,Intracellular APEC (log CFU/mL),[2]; 15 mM,No intracellular APEC was recovered
same,Intracellular APEC (log CFU/mL),"[2]; 15 mM, listed as P-2",0.00 ± 0.00 log CFU/mL
same,Intracellular APEC (log CFU/mL),[2]; 18 mM,0.00 ± 0.00 log CFU/mL
same,Biofilm protected APEC (log CFU/mL),[3],0.00 ± 0.00 log CFU/mL
